The source of these data is paper PMC11291853, “Haemodynamic, hormonal and renal actions of osteocrin in normal sheep” (Experimental Physiology, 2024).

Where no end group is shown, it is not given here.

Data set [1] deals with normal conscious sheep. The data set is described as follows: Haemodynamic and haematocrit responses to stepped OSTN infusion. Format: in vivo. Conditions: for Fall in mean arterial pressure (MAP) compared with time-matched vehicle control: sheep n = 8. Here is the method:
Eight Coopworth ewes (4–6 years; 42–60 kg; Lincoln University Farm, New Zealand) were instrumented under general anaesthesia (induced by 0.5 mg/kg diazepam I.V. and 4 mg/kg ketamine I.V. and maintained with a mixture of isoflurane and oxygen) and using approved peri‐ and postoperative antibiotics (20 mg/kg cephazolin I.V.; 6.6–20 mg/kg oxytetracycline I.V.) and analgesia (4 mg/kg carprofen I.V.). Sheep were instrumented via a 50‐mm‐long neck incision, allowing cannulation of the left carotid artery (16 gauge Angiocath; Becton Dickinson, Sandy, UT, USA) for direct measurement of mean arterial pressure (MAP) and heart rate (HR). A polyethylene catheter was placed in the left jugular vein for blood sampling and recording of central venous pressure (CVP). A Swan–Ganz thermodilution catheter (Edwards Life Sciences, Irvine, CA, USA) was placed in the pulmonary artery via the jugular vein for the measurement of cardiac output (CO). The urinary bladder was catheterized per urethra for timed urine collections (Charles, Espiner, Nicholls et al., [1996]). Animals recovered for ≥5 days before commencing the study protocol.
(§1) Sheep received I.V. infusions of increasing doses of ovine proOSTN (83–133), the putative 51 aa circulating peptide (at 2.5, 25 and 250 pmol/kg/min for 1 h each; Mimotopes, Melbourne, Victoria, Australia) and a vehicle control (0.9% saline) administered on separate days, ≥1 day apart, in a balanced random order.
Haemodynamic measurements [HR, MAP, CVP and CO, and calculated total peripheral resistance (CTPR = MAP/CO)] were recorded at 30 min intervals in the hour preceding the first dose (baseline) and at 15, 30, 45 and 60 min during each infusion. […] Measurements were determined by online computer‐assisted analysis (PowerLab Systems; ADInstruments, Dunedin, New Zealand) and made with the animals standing quietly in their metabolic crates (Charles, Espiner, Nicholls et al., [1996]).
(§2) Venous blood samples were obtained at 30 min and immediately preceding commencement of the first infusion (baseline) and at 30 min intervals for the duration of the study day. Samples were taken into tubes on ice, centrifuged at 4°C and stored at −20°C before assaying. Following extraction over C18 SepPac cartridges (Waters Corp., Milford, MA, USA), plasma concentrations of cGMP (Charles et al., [1990]), ANP (Charles et al., [1990]), BNP (Pemberton et al., [1997]), CNP (Charles et al., [1995]) and N‐terminal proCNP (NTproCNP) (Wilson et al., [2015]), were measured by radioimmunoassay (RIA) as previously described. Non‐extracted plasma renin activity (PRA) (Dunn & Espiner, [1976]) and aldosterone (Lun et al., [1983]) were measured as previously described. Cyclic AMP was measured by enzyme‐linked immunosorbent assay (catalogue no. ADI‐900‐163; Enzo Life Sciences, Farmingdale, NY, USA). For each analyte, all samples from individual animals were measured in the same assay to avoid interassay variability. Haematocrit concentrations were measured with every blood sample taken.

Data set [2] is described as follows: Plasma OSTN concentration, metabolic clearance rate and half-life during and after stepped I.V. infusion (OSTN RIA). Format: in vivo, sheep. Conditions: mean ± SD; for level at time molar at 1 h: sheep, sheep n = 8, RIA. Here is the method: as §1, §2
Osteocrin concentrations in the infusate were measured to calculate the infusion rate and metabolic clearance rate (MCR) of the peptide (MCR = infusion rate/plateau − baseline level).
Human proOSTN (83–112) […] was iodinated using 0.5 mCi Na^125I in the presence of […] chloramine‐T in […] phosphate buffer, pH 7.5, for 20 s, followed by the addition of 50 mg cysteine, 25 mg BSA and 20 mg KI in […] buffer. The resulting mixture was loaded onto a 10 cm RP300 Brownlee column and eluted with a gradient from 0% to 60% acetonitrile in 49 mmol/L KH2PO4 buffer, pH 2.9, over 30 min at 1 mL/min, collecting 0.5 mL fractions. The fraction containing the major peak of radioactive [^125I]‐proOSTN (83–112) was used in the RIA. Peptide standards were made from synthetic human proOSTN (83–133) taking into account the purity data supplied. All standards, sample extracts, antisera and tracer solutions were made up in pH 7.4 assay buffer (0.1% BSA in 0.1 M phosphate buffer). Fifty microlitres of sample extract or 1−1000 pmol/L of human proOSTN (83–133) standard (all in duplicate) were incubated with 50 μL antiserum H‐028‐68 (Phoenix Pharmaceuticals) at a dilution of 1:20,000 for 24 h at 4°C, followed by addition of 50 μL of tracer solution [^125I]‐proOSTN (83–112) containing 3000 cpm for an additional 24 h at 4°C. Bound and free [^125I]‐proOSTN (83–112) were separated by a solid‐phase second antibody method (Sac‐Cell, Donkey‐Anti Rabbit; IDS, UK), and the radioactivity in the bound [^125I]‐proOSTN (83–112) pellet was measured in a PerkinElmer Wizard2 10‐Detector Gamma Counter. Ovine concentrations of OSTN were extrapolated from the human standards, taking into account ovine proOSTN (83–133) cross‐reactivity. Ovine proOSTN (83–112) cross‐reactivity in the ANP, BNP and CNP RIA was <0.005%.

Data set [3] deals with normal conscious sheep. Description: Plasma renin activity and aldosterone responses to stepped OSTN infusion. Conditions: sheep n = 8, mean ± SD. The class given is in vivo. The procedure: as §1, §2
The mark [4] stands for this setting: 1 h, end of OSTN 2.5 pmol/kg/min I.V.
[5] abbreviates: 2 h, end of OSTN 25 pmol/kg/min I.V.
The mark [6] stands for this setting: 3 h, end of OSTN 250 pmol/kg/min I.V.
Setting [7] is: 4 h, 1 h after end of infusions.
Setting [8] is: 5 h, 2 h after end of infusions.

What is called half-life is how long it takes for the measured level to halve. In the case of “SFSGFGSPLDRLSAGSVSHKGKQRKVVDHPKRRFGIPMDRIGRNRLSNSRG [OSTN]”, the “Fall in mean arterial pressure (MAP) compared with time-matched vehicle control” value with normal conscious sheep [1] (end of 2.5 pmol/kg/min infusion period) is about 2 mmHg; in the data set on normal conscious sheep [1] (end of 25 pmol/kg/min infusion period) it was about 7 mmHg; in the data set on normal conscious sheep [1] (end of 250 pmol/kg/min infusion period) it was about 12 mmHg. For the same sequence, in the data set on normal conscious sheep [1] (stepped OSTN infusions vs vehicle, P = 0.140), the “Heart rate (HR)” value is “did not significantly alter”. In addition, in the data set with normal conscious sheep [1] (stepped OSTN infusions vs vehicle, P = 0.356), the “Calculated total peripheral resistance (CTPR)” value was “did not significantly alter”. The Haematocrit result with normal conscious sheep [1] (stepped OSTN infusions vs vehicle, P = 0.360) is recorded as “did not significantly alter”. The “Cardiac output (CO)” value in the data set with normal conscious sheep [1] (stepped OSTN infusions vs vehicle, P = 0.546) is listed as “did not significantly alter”. Besides, the “Central venous pressure (CVP)” value with normal conscious sheep [1] (vs vehicle, P = 0.003, significant reductions at 25 and 250 pmol/kg/min) is given as “reduced”. In data set [2] (Coopworth, plasma, iv, normal sheep, after end of 250 pmol/kg/min infusion, samples at 1-15 min, read-out: Osteocrin plasma half-life), the half-life was determined as 5.7 ± 1.8 min. For the same sequence, the level at time molar at 1 h in data set [2] (Coopworth, plasma, iv, 2.5 pmol/kg/min, end of 60 min I.V. infusion at 2.5 pmol/kg/min) turned out to be 0.0287 ± 0.008 nM; in data set [2] (Coopworth, plasma, iv, 25 pmol/kg/min, end of 60 min I.V. infusion at 25 pmol/kg/min), 0.48 ± 0.195 nM; in data set [2] (Coopworth, plasma, iv, 250 pmol/kg/min, end of 60 min I.V. infusion at 250 pmol/kg/min), 6.09 ± 0.75 nM. The same sequence had an Osteocrin plasma half-life in data set [2] (normal sheep, after end of 250 pmol/kg/min infusion, samples at 1-15 min) of about 6 min. The Plasma aldosterone in the data set on normal conscious sheep [3] (setting [4]) is on record as 199 ± 156 pmol/L; in the data set with normal conscious sheep [3] (setting [5]) it was 176 ± 137 pmol/L; in the data set on normal conscious sheep [3] (setting [6]), 167 ± 157 pmol/L; in the data set with normal conscious sheep [3] (setting [7]) it was 153 ± 142 pmol/L; in the data set with normal conscious sheep [3] (setting [8]) it was 192 ± 130 pmol/L. Moreover, the Plasma renin activity in the data set on normal conscious sheep [3] (setting [4]) amounted to 0.153 ± 0.070 nmol/L/h; in the data set on normal conscious sheep [3] (setting [5]) it was 0.153 ± 0.065 nmol/L/h; in the data set on normal conscious sheep [3] (setting [6]), 0.155 ± 0.075 nmol/L/h; in the data set with normal conscious sheep [3] (setting [7]) it was 0.186 ± 0.109 nmol/L/h; in the data set with normal conscious sheep [3] (setting [8]) it was 0.241 ± 0.181 nmol/L/h.
